Test results: PMC3625562, “Rapid Screening of Drug-Protein Binding Using High-Performance Affinity Chromatography with Columns Containing Immobilized Human Serum Albumin” (Journal of Analytical Methods in Chemistry, 2013)
Structures can show the parent of a compound that is named as a salt. Where two headings read alike, the source gives them in different places. Non-standard residues stand in square brackets, D forms with d. Residues, ends and D or L forms follow the SMILES beside them. Phe(4-Cl) = N[CH](Cc1ccc(Cl)cc1)C(=O)O; 2Nal = N[CH](Cc1ccc2ccccc2c1)C(=O)O; 3Pal = N[CH](Cc1cccnc1)C(=O)O

Key:
[1] = target: T1, immobilized human serum albumin (HSA) (Homo sapiens, UniProt P02768); settings: pH 7
Experimental: (§1) Compounds were dissolved with water or water-ethanol (with different ratio) to a concentration of 100 µg/mL. The chromatographic peak was attained on a 5 μm Chiral-HSA, 50 × 3 mm column (Chrom Tech, France), which was preceded by an on-line filter. The ChemStation for LC 3D software was used for data acquiring and handling. As a generic rapid method, an isocratic mobile phase was selected. To simulate physiology environment, a mobile phase consisting of 0.9% NaCl (pH 7.0) at a flow rate of 0.5 mL/min was used. 10 µL aliquot of analyte solution was injected to HPLC to be analyzed.

plasma proteins [2] = settings: cited from earlier work
[3] = target: human serum albumin (HSA) (Homo sapiens, UniProt P02768); experiment: Drug-protein binding screening by HPLC on immobilized HSA column (HSA-HPLC); settings: human, pH 7
Experimental: as §1

plasma proteins [4] = experiment: PPB experiment by ultrafiltration; settings: plasma, 10, 40, 200, 100, 2000, 100 ng/mL for A, B, C, D, E, F, 37°C 30 min, Microcon YM-30, triplicates; for fraction unbound at 30 min: plasma, PPB by ultrafiltration
Experimental: (§2) PPB Experiment for Test Compounds by Ultrafiltration
(§3) The stock solution (1.0 or 2 mg/mL) of test compounds was prepared by dissolving appropriate amount of compounds in water-methanol (50 : 50, v/v) mixture. Working solution (1, 10 or 100 μg/mL) was attained by diluted stock solution with water. A different volume of the working solution was added to a 2 mL eppendorf vial and evaporated to dryness under a stream of nitrogen in the thermostatically controlled water bath maintained at 55°C for about 20 min. […] The mixture was incubated at 37°C for 30 min. […] The filtrate was analyzed for the drug content by HPLC-MS.
(§4) The concentration of the filtrate was analyzed by HPLC-MS. […] The PPB by ultrafiltration was performed in triplicates for all the compounds studied.

[5] = target: T1, immobilized human serum albumin (HSA); experiment: Drug-protein binding screening by HPLC on immobilized HSA column (HSA-HPLC); settings: 0.5 mL/min
Experimental: as §1

plasma proteins [6] = experiment: in vitro
Experimental: as §2, §3, §4

[7] = reported PPB values of reference compounds, ref not printed
[8] = reference compounds, Chiral-HSA 50 × 3 mm column, mobile phase 0.9% NaCl (pH 7.0), 100 µg/mL, 10 µL injected
[9] = test compounds, Chiral-HSA column, 0.9% NaCl (pH 7.0)

T1 sequence (P02768 25-609): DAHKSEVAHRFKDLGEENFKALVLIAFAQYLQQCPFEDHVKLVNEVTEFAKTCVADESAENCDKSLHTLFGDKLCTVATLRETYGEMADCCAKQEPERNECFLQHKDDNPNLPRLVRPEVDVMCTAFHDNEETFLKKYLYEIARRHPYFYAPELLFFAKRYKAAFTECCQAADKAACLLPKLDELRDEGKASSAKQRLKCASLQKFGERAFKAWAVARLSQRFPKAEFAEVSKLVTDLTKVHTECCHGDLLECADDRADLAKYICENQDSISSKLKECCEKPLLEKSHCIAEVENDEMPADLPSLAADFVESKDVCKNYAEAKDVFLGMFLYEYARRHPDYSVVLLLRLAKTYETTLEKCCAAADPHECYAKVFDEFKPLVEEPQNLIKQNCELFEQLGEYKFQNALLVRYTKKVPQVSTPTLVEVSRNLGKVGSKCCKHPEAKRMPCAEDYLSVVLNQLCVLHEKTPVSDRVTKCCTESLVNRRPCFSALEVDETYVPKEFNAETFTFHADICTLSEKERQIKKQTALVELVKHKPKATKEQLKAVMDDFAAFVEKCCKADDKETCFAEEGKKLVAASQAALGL
human serum albumin (HSA), sequence (P02768 25-609): as above

Which Retention time [1] does the source give for `COc1cc(/C=C/C(=O)O)ccc1O` [Ferulic acid] here?
Its Retention time is 1.79 min.

What about the PPB from literature (plasma proteins [2]; [7]) of the same compound?
The PPB from literature was 20.6%.

What does the source list for `Cc1cc(SCc2cnc(-c3ccc(C(F)(F)F)cc3)nc2)ccc1OCC(=O)O` [Comp. E]?
fraction unbound at 100 µg/mL [3]: < 0.1; PPB by ultrafiltration (plasma proteins [4]): 99.5%; fraction unbound at 30 min (plasma proteins [4]): 0.005

With `O=C(O)/C=C/c1ccc(O)c(O)c1` [Caffeic acid] as the compound, how does the PPB from literature (plasma proteins [2]; [7]) read?
Its PPB from literature is 66.0%.

What about the Retention time [5, 8] of the same compound?
Its Retention time is 4.02 min.

For `C[C@@](COC12CCN(CC1)CC2)(c1ccccc1)C1CCCC1` [Comp. A], which Retention time ([1]; human, 100 µg/mL) is on record?
The Retention time was 0.76 min.

And the fraction unbound (plasma proteins [6])?
The fraction unbound was 0.218.

With `CC(C)NCC(O)COc1cccc2ccccc12` (stereo not shown) [Propranolol hydrochloride] as the compound, how does the PPB from literature (plasma proteins [2]; [7]) read?
The PPB from literature was 92.5 (90–95) %.

And the PPB from literature (plasma proteins [2]; reported PPB values of reference compounds, ref not printed, listed as propranolol hydrochloride)?
The PPB from literature was 90–95%.

And the Retention time [5, 8]?
Its Retention time is 5.21 min.

With `COc1cc(C(=O)O)ccc1O` [Vanillic acid] as the compound, how does the Retention time ([1]; human, 100 µg/mL) read?
The Retention time was 3.11 min.

And the PPB from literature (plasma proteins [2]; [7])?
Its PPB from literature is 56.3%.

With `Cc1nc(C)c(C)nc1C.Cl` [Chuanxiongzine hydrochloride] as the compound, how does the Retention time [1] read?
Its Retention time is 2.23 min.

And the PPB from literature (plasma proteins [2]; [7])?
The PPB from literature was 44.3%.

For `CNC(=C[N+](=O)[O-])NCCSCc1ccc(CN(C)C)o1` [Ranitidine hydrochloride], which PPB from literature (plasma proteins [2]; [7]) is on record?
Its PPB from literature is 15.0 (12–18) %.

What about the Retention time [5, 8] of the same compound?
The Retention time was 1.23 min.

Which PPB from literature (plasma proteins [2]; [7]) does the source give for `O=C(C1CCCCC1)N1CC(=O)N2CCc3ccccc3C2C1` (stereo not shown) [Praziquantel] here?
Its PPB from literature is 80.0%.

And the Retention time [5, 8]?
Its Retention time is 12.97 min.

Which PPB from literature (plasma proteins [2]; [7]) does the source give for `COC(=O)[C@H]1[C@H]2C[C@@H]3c4[nH]c5cc(OC)ccc5c4CCN3C[C@H]2C[C@@H](OC(=O)c2cc(OC)c(OC)c(OC)c2)[C@@H]1OC` [Reserpine] here?
The PPB from literature was 96.0%.

What about the Retention time [5, 8] of the same compound?
The Retention time was 0.71 min.

Which results are given for `Cc1cc(C)nc(NS(=O)(=O)c2ccc(N)cc2)n1` [Sulfadimidine]?
PPB from literature (plasma proteins [2]; [7]): 80.0%; Retention time [5, 8]: 6.22 min

With `CN(C)CCC(c1ccc(Cl)cc1)c1ccccn1` (stereo not shown) [Chlorphenamine maleate] as the compound, how does the PPB from literature (plasma proteins [2]; [7]) read?
The PPB from literature was 37.5 (25–50) %.

And the Retention time [5, 8]?
Its Retention time is 5.93 min.

Which Retention time [5, 9] does the source give for `CC(=O)NC(Cc1ccc2ccccc2c1)C(=O)NC(Cc1ccc(Cl)cc1)C(=O)NC(Cc1ccccc1)C(=O)NC(CO)C(=O)NC(CCCNC(=N)N)C(=O)NC(Cc1cccnc1)C(=O)NC(CC(C)C)C(=O)NC(CCCNC(=N)N)C(=O)N1CCCC1C(=O)NC(C)C(N)=O` (stereo not shown) [Comp. F] (Ac-[2Nal][Phe(4-Cl)]FSR[3Pal]LRPA-NH2; configuration not given here) here?
Its Retention time is 0.81 min.

And the PPB by ultrafiltration (plasma proteins [4])?
Its PPB by ultrafiltration is 97.2%.

With `CCN(CC)CCOc1ccc(C(=C(Cl)c2ccccc2)c2ccccc2)cc1` [clomifene citrate] as the compound, how does the Retention time [5, 8] read?
The Retention time was over 240 min.

Which results are given for `CCOc1ccc(NC(C)=O)cc1` [Phenacetin]?
PPB from literature (plasma proteins [2]; [7]): 30.0%; Retention time [5, 8]: 3.19 min

With `C[C@@H]1O[C@@H](OC[C@H]2O[C@@H](Oc3c(-c4ccc(O)c(O)c4)oc4cc(O)cc(O)c4c3=O)[C@H](O)[C@@H](O)[C@@H]2O)[C@H](O)[C@H](O)[C@H]1O` [Rutoside] as the compound, how does the PPB from literature (plasma proteins [2]; [7]) read?
The PPB from literature was 85.0 (80–90) %.

And the PPB from literature (plasma proteins [2]; reported PPB values of reference compounds, ref not printed, listed as rutoside)?
The PPB from literature was 80–90%.

And the Retention time [5, 8]?
The Retention time was 13.43 min.

For `O=C(O)c1ccccc1O` [Salicylic acid], which PPB from literature (plasma proteins [2]; [7]) is on record?
Its PPB from literature is 85.0 (80–90) %.

What does the source list for `Cn1c(=O)c2c(ncn2C)n(C)c1=O` [Caffeine]?
PPB from literature (plasma proteins [2]; [7]): 22.5%; Retention time [5, 8]: 1.18 min

Which PPB from literature (plasma proteins [2]) does the source give for `CC(=O)[C@H]1CC[C@H]2[C@@H]3CCC4=CC(=O)CC[C@]4(C)[C@H]3CC[C@]12C` [Progesterone] here?
Its PPB from literature is 97.0%.

What about the Retention time [5, 8] of the same compound?
The Retention time was 50.02 min.

Which results are given for `CC(C)[C@]12O[C@H]1[C@@H]1O[C@]13[C@]1(O[C@H]1C[C@H]1C4=C(CC[C@@]13C)C(=O)OC4)[C@@H]2O` [Comp. B]?
Retention time [5, 9]: 1.70 min; fraction unbound at 30 min (plasma proteins [4]): 0.784

For `CN1CCOC(c2ccccc2)c2ccccc2C1` (stereo not shown) [Nefopam hydrochloride], which PPB from literature (plasma proteins [2]; [7]) is on record?
The PPB from literature was 73.5 (71–76) %.

And the PPB from literature (plasma proteins [2]; reported PPB values of reference compounds, ref not printed, listed as nefopam)?
The PPB from literature was 71–76%.

What about the Retention time [5, 8] of the same compound?
The Retention time was 7.87 min.

Which PPB from literature (plasma proteins [2]; [7]) does the source give for `Nc1ccc(S(=O)(=O)Nc2ncccn2)cc1` [Sulfadiazine] here?
Its PPB from literature is 43.0 (38–48) %.

And the Retention time [5, 8]?
The Retention time was 1.88 min.

Which results are given for `Oc1cc(O)c2c(c1)O[C@H](c1ccc(O)c(O)c1)[C@@H](O)C2` [Catechuic acid]?
PPB from literature (plasma proteins [2]; [7]): 20.7%; Retention time [5, 8]: 1.94 min

For `CCC(=O)O[C@H]1CC[C@H]2[C@@H]3CCC4=CC(=O)CC[C@]4(C)[C@H]3CC[C@]12C` [Testosterone propionate], which Retention time ([1]; human) is on record?
The Retention time was 0.74 min.

And the PPB from literature (plasma proteins [2]; [7])?
The PPB from literature was 98.0%.

What does the source list for `O=c1c(O)c(-c2ccc(O)c(O)c2)oc2cc(O)cc(O)c12` [Quercetin]?
PPB from literature (plasma proteins [2]; [7]): 98.0%; Retention time [5, 8]: 0.72 min

For `CC(=O)OCC(=O)[C@@]1(O)CC[C@H]2[C@@H]3CCC4=CC(=O)CC[C@]4(C)[C@H]3[C@@H](O)C[C@@]21C` [Hydrocortisone acetate], which PPB from literature (plasma proteins [2]; [7]) is on record?
The PPB from literature was 90.0%.

What about the Retention time [5, 8] of the same compound?
Its Retention time is 0.73 min.

Which PPB from literature (plasma proteins [2]; [7]) does the source give for `OC(Cn1cncn1)(Cn1cncn1)c1ccc(F)cc1F` [Fluconazole] here?
The PPB from literature was 11.5 (11-12) %.

And the Retention time [5, 8]?
The Retention time was 1.07 min.

For `CCN(CC)Cc1cc(-c2nc3c(Cl)nnc(OC)c3n2C)ccc1O` [Comp. C], which Retention time [5, 9] is on record?
Its Retention time is 1.75 min.

And the fraction unbound at 100 µg/mL [3]?
The fraction unbound at 100 µg/mL was over 0.1.

And the PPB by ultrafiltration (plasma proteins [4])?
Its PPB by ultrafiltration is 51.0%.

What about the fraction unbound at 30 min (plasma proteins [4]) of the same compound?
The fraction unbound at 30 min was 0.485.

Which PPB from literature (plasma proteins [2]; [7]) does the source give for `O=C1NC(=O)C(c2ccccc2)(c2ccccc2)N1` [Phenytoin sodium] here?
Its PPB from literature is 90.0%.

And the Retention time [5, 8]?
Its Retention time is 15.02 min.

For `NS(=O)(=O)c1cc2c(cc1C(F)(F)F)NC(Cc1ccccc1)NS2(=O)=O` (stereo not shown) [Bendroflumethiazide], which PPB from literature (plasma proteins [2]; [7]) is on record?
Its PPB from literature is 94.0%.

And the Retention time [5, 8]?
The Retention time was 3.27 min.
